In US20140051665A1, “PROSTATE CANCER THERAPY WITH HSP90 INHIBITORY COMPOUNDS” (SYNTA PHARMACEUTICALS CORP., priority 2011, published 2014):
Read-outs that look alike come from different tables or passages of the source.

Key:
PC3 cells [1] = assay: Combination of AZD-7762 with ganetespib, killing of PC3 cells; type: cell-based, human
VCaP cells = assay: CellTiter-Glo cell viability assay, VCaP
Experimental: (§3) The LNCaP, VCaP, 22Rv1, DU145 and PC3 human prostate cancer cell lines and HeLa cells were all purchased from the American Type Culture Collection (Manassas, Va., USA). Cells were maintained and cultured according to standard techniques at 37° C. in 5% (v/v) CO2 using culture medium recommended by the supplier. […] The Hsp90 inhibitors ganetespib and 17-AAG were synthesized at Synta Pharmaceuticals Corp. methyltrienolone (R1881) was purchased from Perkin-Elmer (Boston, Mass., USA).
(§4) Cellular viability was assessed using the CellTiter-Glo Luminescent Cell Viability Assay (Promega, Madison, Wis., USA) according to the manufacturer's protocol. Twenty-four hours after plating at 5×10^3 cells/well in triplicate in 96-well plates, cells were dosed with graded concentrations of ganetespib or 17-AAG for 72 h. CellTiter-Glo was added (50% v/v) to the cells, and the plates incubated for 10 min prior to luminescent detection in a SpectraMax Plus 384 microplate reader (Molecular Devices, Sunnyvale, Calif., USA). Data were normalized to percent of control and IC50 values used to determine the sensitivity of each line.

LNCaP cells = assay: CellTiter-Glo cell viability assay, LNCaP
Experimental: as §3, §4

[2] = system: DU145 cells (EGFR, STAT3, IGF-IR); assay: Western blot of Hsp90 client proteins, DU145; type: cell-based, human; details: for exposure required for significant reductions in p-EGFR expression: DU145
From the text: (§1) Prostate cancer cell lines were lysed in RIPA buffer (Cell Signaling Technology, Beverly, Mass. USA) and HeLa lysed by four rounds of freeze/thawing using 1× Reporter Lysis Buffer (Promega, Madison, Wis., USA) containing 0.4 M NaCl. Lysates were clarified by centrifugation and equal amounts of protein resolved by SDSPAGE before transfer to nitrocellulose membranes. Membranes were blocked with 5% skim milk in TBS with 0.5% Tween and immunoblotted with indicated antibodies. Antigen-antibody complexes were visualized using an Odyssey system (LI-COR, Lincoln, Nebr., USA).

DU145 cells [3] = assay: CellTiter-Glo cell viability assay, DU145; details: read-out: cytotoxicity IC50
Experimental: as §3, §4

DU145 cells [4] = assay: Annexin V apoptosis assay by flow cytometry; type: cell-based, human; details: DU145, 24 h, escalating doses
Experimental: (§2) For cell cycle analysis, PC3 and DU145 cells were seeded overnight at 0.3×10^6 cells/5 mL in a 6-well plate and then exposed to increasing concentrations of ganetespib (0-500 nM) for 24 h. Cells were harvested and stained with propidium iodide using the BD Cycle TEST PLUS Reagent Kit (BD Biosciences, San Jose, Calif., USA) according to the manufacturer's instructions. Twenty thousand cells were analyzed for their DNA content using a FACS Caliber cytometer (BD Biosciences, Billerica, Mass., USA). For the apoptosis assay in the DU145 cell line, cells were treated with ganetespib (10, 100 or 500 nM), 17-AAG (500 or 1000 nM) or control (DMSO) for 24 h. Following treatment cells were harvested and stained using a fluorescein-conjugated anti-Annexin V antibody (BD Biosciences) and apoptosis assessed by flow cytometry.

PC3 cells [5] = assay: CellTiter-Glo cell viability assay, PC3; details: read-out: cytotoxicity IC50
Experimental: as §3, §4

22Rv1 cells = assay: CellTiter-Glo cell viability assay, 22Rv1; details: read-out: cytotoxicity IC50, 22Rv1, 72 h
Experimental: as §3, §4

[6] = system: DU-145 prostate carcinoma cells; assay: alamarBlue cell viability assay, single agents and docetaxel combination; details: DU-145 cells, 72 hr
constitutive V7 activity = assay: GRE-luciferase reporter assay in HeLa, V7 variant; type: cell-based
From the text: HeLa cells were transiently transfected using a poly-L-lysine coupled adenoviral-mediated DNA transfer technique as previously described. See, e.g., Nazareth et al (1996), Activation of the human androgen receptor through a protein kinase A signaling pathway. J Biol Chem 271 19900-19907. The plasmid constructs used were pCR3.1-AR (encoding for full length AR) and pCR3.1-V7 (encoding for the V7 truncated AR isoform and which was a gift from Manjula Nakka and William Krause, Baylor College of Medicine). For the expression study, HeLa cells were transfected with 3 ng of pCR3.1-AR or 0.5 ng of pCR3.1-V7 for 24 h. Cells were treated with R1881 (10 nM), GA (1 μM), and/or STA9090 (250 nM) or vehicle (ethanol and DMSO) for 24 hours prior to lysis and immunoblotting. To determine the effect of Hsp90 inhibitors on AR and variant activity, HeLa cells were transiently transfected with 250 ng of GRE-luciferase reporter, 30 ng of pCR3.1 β-galactosidase, 3 ng of pCR3.1-AR, or 0.03 ng of pCR3.1-V7 and treated as above. Luciferase and β-galactosidase activities were measured and luciferase levels normalized to β-galactosidase levels as described previously. See, e.g., Agoulnik et al (2003), Repressors of androgen and progesterone receptor action. J Biol Chem 278 31136-31148.

[7] = system: PCa cell lines (LNCaP, 22Rv1, PC-3, DU-145); assay: Summary of potency in PCa cell line panel versus 17-AAG; type: cell-based, human
Experimental: as §4

PC3 tumor xenografts = assay: In vivo prostate xenograft model; details: for % T/C: PC3 xenografts in nude mice, i.v.
Experimental: Eight-week-old female immunodeficient nude mice (Charles River Laboratories, Wilmington, Mass.) were maintained in a pathogen-free environment, and all in vivo procedures were approved by the Synta Pharmaceuticals Corp. Institutional Animal Care and Use Committee. PC3 tumor cells were subcutaneously implanted into nude mice. […] Tumor volumes (V) were calculated by caliper measurements of the width (W), length (L), and thickness (T) of each tumor using the formula: V=0.5236(LWT). Tumor growth inhibition was determined as described previously.

[8] = system: LNCaP cells (AR, p-AKT/AKT, CDK1); assay: Western blot of Hsp90 client proteins, LNCaP; type: cell-based, human
From the text: as §1

full length AR = assay: Expression of transfected full length AR in HeLa, immunoblot; type: cell-based; details: 24 h, GA or 250 nM ganetespib, 10 nM R1881
From the text: (§5) HeLa cells were transiently transfected using a poly-L-lysine coupled adenoviral-mediated DNA transfer technique as previously described. […] The plasmid constructs used were pCR3.1-AR (encoding for full length AR) and pCR3.1-V7 (encoding for the V7 truncated AR isoform and which was a gift from Manjula Nakka and William Krause, Baylor College of Medicine).

[9] = system: 22Rv1 cells (full-length AR, p-AKT/AKT, PARP); assay: Western blot, 22Rv1; type: cell-based, human; details: 22Rv1, 24 h
From the text: as §1

[10] = weekly dosing regimen; cited from earlier work
[11] = system: AR-specific transcriptional activity in LNCaP cells; assay: Quantitative RT-PCR of AR-directed genes PSA and TMPRSS2; type: cell-based, human; details: 250 nM ganetespib or 1 μM geldanamycin, 24 h, 10 nM R1881
Experimental: LNCaP cells were cultured in charcoal-stripped medium for 24 h and then treated with 250 nM ganetespib, 1 μM geldanamycin, or vehicle for 24 h in the absence or presence of 10 nM methyltrienolone (R1881). RNA was prepared from the LNCaP cells post-treatment using TRIzol reagent (Invitrogen, Grand Island, N.Y., USA). Previously reported prostate specific antigen (PSA), transmembrane protease, serine 2 (TMPRSS2), and 18S primer sets were used for target gene expression and were analyzed using SYBR green PCR Master mix in an ABI 7500 Fast sequence detection system. See, e.g., Agoulnik et al (2006), Androgens modulate expression of transcription intermediary factor 2, an androgen receptor coactivator whose expression level correlates with early biochemical recurrence in prostate cancer. Cancer Res 66 10594-10602. PSA and TMPRSS2 mRNA levels were normalized to 18S mRNA values.

PC3 cells (IGF-1R) = assay: Western blot of Hsp90 client proteins, PC3; type: cell-based, human
From the text: as §1

full-length AR activity = assay: GRE-luciferase reporter assay in HeLa, full-length AR; type: cell-based
Experimental: HeLa cells were transiently transfected using a poly-L-lysine coupled adenoviral-mediated DNA transfer technique as previously described. […] The plasmid constructs used were pCR3.1-AR (encoding for full length AR) and pCR3.1-V7 (encoding for the V7 truncated AR isoform and which was a gift from Manjula Nakka and William Krause, Baylor College of Medicine). […] To determine the effect of Hsp90 inhibitors on AR and variant activity, HeLa cells were transiently transfected with 250 ng of GRE-luciferase reporter, 30 ng of pCR3.1 β-galactosidase, 3 ng of pCR3.1-AR, or 0.03 ng of pCR3.1-V7 and treated as above. Luciferase and β-galactosidase activities were measured and luciferase levels normalized to β-galactosidase levels as described previously.

V7 truncated AR isoform = assay: Expression of transfected V7 truncated AR in HeLa, immunoblot; type: cell-based; details: 24 h, 1 mM GA or 250 nM ganetespib
From the text: as §5

PC3 cells [12] = assay: Cell cycle analysis by flow cytometry, PC3; type: cell-based, human; details: PC3, 0-500 nM, 24 h
Experimental: as §2

DU145 cells [13] = assay: Cell cycle analysis by flow cytometry, DU145; type: cell-based, human; details: DU145, 0-500 nM, 24 h
Experimental: as §2

[14] = read-out: cytotoxicity IC50, 72 h
[15] = Homo sapiens, 72 h, read-out: cytotoxicity IC50

## NC(=O)Nc1cc(-c2cccc(F)c2)sc1C(=O)N[C@H]1CCCNC1 [AZD-7762]
PC3 cells [1]
  combination effect with ganetespib in killing cells: in synergy with ganetespib

## C=CCNC1=C2C[C@@H](C)C[C@H](OC)[C@H](O)[C@@H](C)/C=C(\C)[C@H](OC(N)=O)[C@@H](OC)/C=C\C=C(/C)C(=O)NC(=CC1=O)C2=O [Compound 17-AAG, 17-AAG, reference compound]
VCaP cells; [14]
  IC50: 2640 nM
LNCaP cells; [14]
  IC50: 265 nM
[2]
  exposure required for significant reductions in p-EGFR expression: 18 h
DU145 cells [3]; DU145, 72 h
  IC50: 36 nM
DU145 cells [4]
  apoptotic cells, Annexin V staining: comparable proportion of apoptotic cells
PC3 cells [5]; PC3, 72 h
  IC50: 246 nM
22Rv1 cells
  IC50: 1270 nM

## CC(C)c1cc(-c2nnc(O)n2-c2ccc3c(ccn3C)c2)c(O)cc1O [Ganetespib, 3-(2,4-dihydroxy-5-isopropyl-phenyl)-4-(1-methyl-indol-5-yl)-5-hydroxy-[1,2,4] triazole]
[6]
  IC50: 14 nM
VCaP cells; [15]
  IC50: 7 nM
Constitutive V7 activity
  constitutive V7 activity, luciferase assay: less effective
[7]
  IC50 fold less than 17-AAG: 3-7 fold
LNCaP cells; [15]
  IC50: 8 nM
[2]
  exposure required for significant reductions in p-EGFR expression: 18 h
[2]; DU145, 24 h, Western blot
  STAT3 signaling: completely abrogated
PC3 tumor xenografts; 150 mg/kg weekly, nude mice
  tolerability of the regimen: well tolerated
PC3 tumor xenografts; once a week at 150 mg/kg for 4 weeks
  % T/C: 17%
PC3 tumor xenografts; twice a week at 50 mg/kg for 4 weeks
  % T/C: 3%
[8]; 100 nM
  time of destabilization of p-AKT/AKT: 18 h
  time of loss of total and phosphorylated CDK1: ≤ 24 h
  time to measurable reduction in AR expression: ≤ 3 h
[8]; 24 h, Western blot
  AR levels: potent and dose-dependent decrease
Full length AR
  androgen-increased full-length AR expression: completely abrogated
[9]
  dose sufficient to induce degradation of full-length AR, destabilization of p-AKT/AKT and apoptosis (cleaved PARP): ≤ 25 nM
[10]
  highest non-severely toxic dose (HNSTD): 150 mg/kg
[11]
  R1881 induction of PSA and TMPRSS2 mRNA: significantly inhibited
DU145 cells [3]; Homo sapiens, DU-145, 72 h
  IC50: 12 nM
DU145 cells [4]
  apoptotic cells, Annexin V staining: dose-dependent increase in apoptotic cells
PC3 cells (IGF-1R)
  time by which IGF-1R levels were reduced: ≤ 6 h
PC3 cells [5]; Homo sapiens, PC-3, 72 h
  IC50: 77 nM
full-length AR activity
  full-length AR activity, luciferase assay: strongly inhibited
V7 truncated AR isoform
  expression of the variant (V7) receptor: neither inhibitor significantly altered expression
22Rv1 cells; Homo sapiens
  IC50: 2 nM
PC3 cells [12]
  cell cycle distribution: dose-dependent accumulation of cells in the G2/M phase
DU145 cells [13]
  cell cycle distribution: dose-dependent accumulation of cells in the G2/M phase

## CC(=O)O[C@@]12CO[C@@H]1C[C@H](O)[C@@]1(C)C(=O)[C@H](O)C3=C(C)[C@@H](OC(=O)[C@H](O)[C@@H](NC(=O)OC(C)(C)C)c4ccccc4)C[C@@](O)([C@@H](OC(=O)c4ccccc4)[C@H]21)C3(C)C [docetaxel, reference compound]
[6]
  IC50: 1 nM
